Data published in ChEMBL document CHEMBL4190258, “Spirograterpene A, a Tetracyclic Spiro-Diterpene with a Fused 5/5/5/5 Ring System from the Deep-Sea-Derived Fungus Penicillium granulatum MCCC 3A00475” (J Nat Prod, 2017).
In brackets after ≈: the same amount, converted by molar mass.

How the values were obtained:
Staphylococcus aureus = test: Antibacterial activity against methicillin-resistant Staphylococcus aureus incubated for 18 hrs by broth microdilution method; type: functional
RBL-2H3 = test: Antiallergic activity in DNP-BSA-stimulated rat RBL2H3 cells assessed as inhibition of anti-DNP-IgE-mediated degranulation by measuring beta-hexosaminidase activity at 20 microg/ml pre-incubated for 1 hr followed by DNP-BSA stimulation by fluorescence assay relative to control; type: functional
HL-60 = test: Cytotoxicity against human HL60 cells assessed as reduction in cell viability; type: functional, cell-based

| SMILES | MIC (Staphylococcus aureus) | inhibition at 20 µg/mL (RBL-2H3) | IC50 (HL-60) |
| --- | --- | --- | --- |
| C[C@@H]1C=CC(=O)[C@@]2(C)CC[C@H]3[C@@]12C[C@]1(C)CCC(C)(C)[C@]31C | 8 µg/mL (≈ 26.6 µM) |  |  |
| C[C@@H]1C[C@@H](O)[C@H](C)[C@@]12CCC1=C2C[C@@]2(C)CC[C@](C)(C(=O)O)[C@@H]12 |  | 18% |  |
| CCOC(=O)N1CCC(=C2c3ccc(Cl)cc3CCc3cccnc32)CC1 [LORATADINE] |  | 35% |  |
| C[C@@H]1C=CC(=O)[C@@]2(C)CC[C@@H]3[C@@H]4[C@@](C)(CC[C@@]4(C)CO)C[C@@]132 |  | 10% | 38 nM |
| C[C@H]1[C@H](O)CC(=O)[C@]2(C)CC[C@H]3[C@@H]4[C@@](C)(CO)CC[C@]4(C)C[C@]132 |  | 4% |  |
